Where two headings read alike, the source gives them in different places.
Tests used:
[1] = biological target: T1, human NK3 receptor (Homo sapiens, UniProt P29371); test: NK3 receptor binding assay (SPA-based competition binding with 125I-NKB, membranes of BHK cells)
T1 construct: expressed in transfected cells; membranes prepared from them
T1 sequence (P29371 1-465): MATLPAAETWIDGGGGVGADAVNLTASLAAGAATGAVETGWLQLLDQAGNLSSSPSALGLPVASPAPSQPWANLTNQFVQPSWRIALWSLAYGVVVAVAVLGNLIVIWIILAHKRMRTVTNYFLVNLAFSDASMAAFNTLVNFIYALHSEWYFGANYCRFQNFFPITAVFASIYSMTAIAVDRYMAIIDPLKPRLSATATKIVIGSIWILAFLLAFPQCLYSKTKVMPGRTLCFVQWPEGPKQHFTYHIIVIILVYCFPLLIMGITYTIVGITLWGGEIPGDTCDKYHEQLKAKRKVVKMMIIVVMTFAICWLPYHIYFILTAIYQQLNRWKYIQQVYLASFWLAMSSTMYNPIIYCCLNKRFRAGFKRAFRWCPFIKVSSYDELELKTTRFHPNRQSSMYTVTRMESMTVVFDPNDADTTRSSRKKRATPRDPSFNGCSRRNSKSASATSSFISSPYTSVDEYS
Experimental: Membranepreparation: BHK cells stably expressing the human NK3 receptor were seeded in harvesting plates in Dulbeccos MEM containing GlutaMax (862 mg/l), 1 mM sodium pyruvate, 10% fetal calf serum, 1% Pen/Strep, I mg/ml G418 and were grown at 34 °C in a humidified atmosphere containing 10% CO2. To increase receptor expression, 10 µM trichotatin A was added to the media 24 hours before harvest of the cells at a confluency of app 90%. Prior to the harvesting, the cells were washed twice with PBS without Mg^2+ og Ca^2+ and subsequently scrapped of in 10 ml PBS pr harvesting plate. The cells suspension were centrifuged at 1500xG in three minutes before resuspension in 15 mM Tris-HCl pH 7,5 buffer containing 2 mM MgCl2; 0,3 mM EDTA and 1 mM EGTA (buffer A). The cell suspention was homogenised and subsequently centrifuged at 40000xG in 30 minutes. The membrane-pellet was resuspended in buffer A containing 250 mM sucrose, alliquoted and stored at - 80°C.
Affinity assay description: The assay was performed as a SPA-based competition-binding assay in a 50 mM Tris pH 7.4 assay buffer containing 120 mM NaCl, 3 mM MnCl2, 40 µg/ml bacitracin, 2 µg/ml Chymostatin, 1 µg/ml Phosphoramidon and 4 µg/ml Leupeptin. App 0.02 nM ^125I-NKB was mixed with test compounds before addition of 4 µg of the homogenised NK3 membrane preparation and 0,025 mg SPA beads in a total volume of 60 µl. The assay plate was subsequently under agitation incubated for 90 min at RT. The plate was centrifugated 10 minutes at 500xG and counted in a topcounter 5 minuttes pr well.
The non-specific binding constituted app 5 % of the total binding.
Data points were expressed in percent of the specific binding of ^125I-NKB and the IC50 values (concentration causing 50 percent inhibition of ^125I-NKB specific binding) were determined by non-linear regression analysis using a sigmoidal variable slope curve fitting. The dissociation constant (Ki) were calculated from the Cheng Prusoff equation (Ki = IG50/(1+(L/KD))), where the concentration of free radioligand L is approximated to the concentration of added ^125I-NKB in the assay (app 0,02 nM).
The KD of ^125I-NKB was determined to be 0,7 nM from three independent saturation assays each performed with duplicate determinations. Bmax was app 2 pmol/mg.

[2] = biological target: T1, human NK3 receptor; test: NK3 receptor efficacy and potency assay (FLIPR Calcium 4 assay, BHK cells; agonist and antagonist mode versus NKB); assay type: cell-based; details: read-out: Potency cIC50
Experimental: BHK cells stably expressing the human NK3 receptor were seeded in 100 µl media in black walled clear-base 96-wells plates (Costar) aiming at a confluency of 95-100% at the day of assay. The assay was performed according to the FLIPR Calcium 4 Assay kit (Molecular Devices). At the day of the assay, the media was removed and the cells were washed once with the HBSS buffer (Hanks BSS buffer, pH 7,4 containing 20 mM Hepes) before 100 µl of a solution of the calcium assay reagent dissolved in the HBSS buffer containing 2,5 mM probinicid was added to the cells. The plates were incubated for 60 min at 34°C, 10% CO2 before use in the FLIPR for examination of fluorescence.
For efficacy and potency evaluation of compounds, these were diluted in HBSS buffer prior to test. For test of agonist activity, 25 µl of the diluted compound solution was added and the plate was analyzed for 5 minutes in the FLIPR. […] The plates were subsequently analyzed for 5 minutes before the assay was terminated. The maximal increase in fluorescence over background following each ligand addition was determined.

[3] = table of Example 10, affinity obtained as described in Example 9, read-out: Affinity Ki
[4] = Ki for the NK3 receptor, table of Example 9, 125I-NKB competition binding, read-out: Ki

| Structure (SMILES) | Ki [1, 3] [nM] | IC50 [2] [nM] | Ki [1, 4] [nM] |
| --- | --- | --- | --- |
| CC[C@H](NC(=O)c1c(CN2CCC(O)(c3cccc(OC)c3)CC2)n(-c2ccccc2)c(=O)c2ccccc12)c1ccccc1 [Example 2gt, 3-[4-Hydroxy-4-(3-methoxy-phenyl)-piperidin-1-ylmethyl]-1-oxo-2-phenyl-1,2-dihydro-isoquinoline-4-carboxylic acid ((S)-1-phenyl-propyl)-amide] | 9.2 | 22 |  |
| COc1cccc(C2(O)CCN(Cc3c(C(=O)NC(c4cccc(F)c4)C4CC4)c4ccccc4c(=O)n3-c3ccccc3)CC2)c1 (centres unmarked) [Example 2hz, 3-[4-Hydroxy-4-(3-methoxy-phenyl)-piperidin-1-ylmethyl]-1-oxo-2-phenyl-1,2-dihydro-isoquinoline-4-carboxylic acid [cyclopropyl-(3-fluoro-phenyl)-methyl]-amide] | 4.5 | 35 | 3 |
| CC[C@H](NC(=O)c1c(CN2CCC2)n(-c2ccccc2)c(=O)c2ccccc12)c1ccccc1 [Example 2ey, 3-Azetidin-1-ylmethyl-1-oxo-2-phenyl-1,2-dihydro-isoquinoline-4-carboxylic acid ((S)-1-phenyl-propyl)-amide] | 240 | 480 |  |
| CC[C@H](NC(=O)c1c(CN2CCNC(=O)C2)n(-c2ccccc2)c(=O)c2ccccc12)c1ccccc1 [Example 2df, 1-Oxo-3-(3-oxo-piperazin-1-ylmethyl)-2-phenyl-1,2-dihydro-isoquinoline-4-carboxylic acid ((S)-1-phenyl-propyl)-amide] | 340 | 450 |  |
| CC[C@H](NC(=O)c1c(CN2CCN(CCN3CCCC3)CC2)n(-c2ccccc2)c(=O)c2ccccc12)c1ccccc1 [Example 2bq, 1-Oxo-2-phenyl-3-[4-(2-pyrrolidin-1-yl-ethyl)-pipcrazin-1-ylmethyl]-1,2-dihydro-isoquinolinc-4-carboxylic acid ((S)-1-phenyl-propyl)-amide] | 160 | 220 |  |
| CC[C@H](NC(=O)c1c(CN(C)C)n(-c2ccccc2)c(=O)c2ccccc12)c1ccccc1 [Example 2a, 3-Dimethylarrtinomethyl-1-oxo-2 phenyl-1,2-dihydro-isoquinoline-4-carboxylic acid ((S)-1-phenyl-propyl)-amide] |  |  | 180 |
| Cc1c(C(=O)N[C@@H](c2cccc(F)c2)C2CC2)c2cccc(Cl)c2c(=O)n1-c1ccccc1 [Example 1bl, 8-Chloro-3-methyl-1-oxo-2-phenyl-1,2-dihydro-isoquinoline-4-carboylic acid [(R)-cyclopropyl-(3-fluoro-phenyl)-methyl]-amide] | 470 |  |  |

Second part, the compound after the results:

| Ki [1, 3] [nM] | IC50 [2] [nM] | Ki [1, 4] [nM] | Structure (SMILES) |
| --- | --- | --- | --- |
| 8.2 | 63 |  | O=C(NC(c1cccc(F)c1)C1CC1)c1c(CN2CCN(Cc3ccncc3)CC2)n(-c2ccccc2)c(=O)c2ccccc12 (centres unmarked) [Example 2hw, 1-Oxo-2-phenyl-3-(4-pyridin4-methyl-piperazin-1-ylmethyl)-1,2-dihydro-isoquinoline-4-carboxylic acid [cyclopropyl-(3-fluoro-phenyl)-methyl]-amide] |
|  |  | 55 | Cc1c(C(=O)NN(c2ccccc2)c2ccccc2)c2ccccc2c(=O)n1-c1ccccc1 [Example 5a, 3-Methyl-1-oxo-2 phenyl-1,2-dihydro-isoquinoline-4-carboxylic acid N',N'-diphenyl-hydrazide] |
| 8.8 | 63 |  | O=C(NC(c1cccc(F)c1)C1CC1)c1c(CN2CCC(CCN3CCOCC3)CC2)n(-c2ccccc2)c(=O)c2ccccc12 (centres unmarked) [Example 2hy, 3-[4-(2-Morpholin-4-yl-ethyl)-piperidin-1-ylmethyl]-1-oxo-2-phenyl-1,2-dihydro-isoquinoline-4-carboxylic acid [cyclopropyl-(3-fluoro-phenyl)-methyl]-amide] |
| 7 | 9.9 |  | CC(C)(C)N1CCC(Cc2c(C(=O)N[C@H](c3cccc(F)c3)C3CC3)c3cccc(Cl)c3c(=O)n2-c2ccccc2)CC1 [Example 8a, 3-(1-tert-Butyl-piperidin-4-ylmethyl)-8-chloro-1-oxo-2 phenyl-1,2-dihydro-isoquinoline-4-carboxylic acid [(S)-cyclopropyl-(3-fluoro-phenyl)-methyl]-amide] |
